Key:
Conditions in all cases: 0.1 µM; binder
[1] = target: BRAF (Homo sapiens, UniProt P15056)
[2] = target: BTK (Homo sapiens, UniProt Q06187)
[3] = target: CSNK1G3 (Homo sapiens, UniProt Q9Y6M4)
[4] = target: DCAMKL2 (Homo sapiens, UniProt Q8N568)
[5] = target: DYRK1A (Homo sapiens, UniProt Q13627)
[6] = target: ERK8 (Homo sapiens, UniProt Q8TD08)
[7] = target: FLT3(ITD,D835V) (Homo sapiens, UniProt P36888, D835V/ITD)
[8] = target: GRK4 (Homo sapiens, UniProt P32298)
[9] = target: HIPK3 (Homo sapiens, UniProt Q9H422)
[10] = target: IRAK1 (Homo sapiens, UniProt P51617)
[11] = target: JNK1 (Homo sapiens, UniProt P45983)
[12] = target: KIT(D816H) (Homo sapiens, UniProt P10721, D816H)
[13] = target: LKB1 (Homo sapiens, UniProt Q15831)
[14] = target: LRRK2(G2019S) (Homo sapiens, UniProt Q5S007, G2019S)
[15] = target: MRCKB (Homo sapiens, UniProt Q9Y5S2)
[16] = target: MTOR (Homo sapiens, UniProt P42345)
[17] = target: NEK10 (Homo sapiens, UniProt Q6ZWH5)
[18] = target: NEK3 (Homo sapiens, UniProt P51956)
NEK3, sequence (P51956 whole entry): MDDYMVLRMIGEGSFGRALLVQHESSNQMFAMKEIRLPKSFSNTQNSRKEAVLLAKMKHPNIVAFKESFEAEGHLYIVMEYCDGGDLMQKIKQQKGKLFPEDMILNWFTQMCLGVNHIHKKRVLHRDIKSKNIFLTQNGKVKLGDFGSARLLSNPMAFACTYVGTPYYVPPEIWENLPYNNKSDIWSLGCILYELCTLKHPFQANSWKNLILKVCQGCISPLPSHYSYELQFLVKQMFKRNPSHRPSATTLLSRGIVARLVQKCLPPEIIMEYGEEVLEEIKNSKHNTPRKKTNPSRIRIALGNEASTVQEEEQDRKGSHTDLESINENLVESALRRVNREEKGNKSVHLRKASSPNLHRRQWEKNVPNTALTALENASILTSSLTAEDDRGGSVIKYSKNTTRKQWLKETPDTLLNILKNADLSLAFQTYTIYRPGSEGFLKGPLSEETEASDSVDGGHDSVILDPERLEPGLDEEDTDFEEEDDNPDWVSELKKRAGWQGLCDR

[19] = target: NIM1 (Homo sapiens, UniProt Q8IY84)
[20] = target: NLK (Homo sapiens, UniProt Q9UBE8)
[21] = target: PAK7 (Homo sapiens, UniProt Q9P286)
PAK7, sequence (Q9P286 whole entry): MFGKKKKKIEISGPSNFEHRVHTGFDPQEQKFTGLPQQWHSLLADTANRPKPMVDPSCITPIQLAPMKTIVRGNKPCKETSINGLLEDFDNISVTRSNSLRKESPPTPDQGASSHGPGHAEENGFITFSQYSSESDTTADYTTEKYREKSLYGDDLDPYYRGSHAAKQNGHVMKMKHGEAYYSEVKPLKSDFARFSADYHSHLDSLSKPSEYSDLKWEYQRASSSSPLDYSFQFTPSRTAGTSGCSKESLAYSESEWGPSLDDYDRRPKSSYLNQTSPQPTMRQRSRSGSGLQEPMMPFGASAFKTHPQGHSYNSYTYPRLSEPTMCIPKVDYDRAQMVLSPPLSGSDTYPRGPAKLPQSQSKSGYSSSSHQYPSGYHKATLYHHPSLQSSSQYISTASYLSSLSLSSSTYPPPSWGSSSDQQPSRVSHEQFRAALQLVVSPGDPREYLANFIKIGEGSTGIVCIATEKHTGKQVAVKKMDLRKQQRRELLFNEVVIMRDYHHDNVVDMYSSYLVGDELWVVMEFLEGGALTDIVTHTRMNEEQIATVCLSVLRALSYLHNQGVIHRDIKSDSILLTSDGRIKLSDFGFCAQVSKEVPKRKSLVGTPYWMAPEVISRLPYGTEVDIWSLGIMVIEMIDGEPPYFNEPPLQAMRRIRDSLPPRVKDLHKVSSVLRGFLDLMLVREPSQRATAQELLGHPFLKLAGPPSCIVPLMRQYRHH

[22] = target: PDGFRA (Homo sapiens, UniProt P16234)
[23] = target: PDPK1 (Homo sapiens, UniProt O15530)
PDPK1, sequence (O15530 whole entry): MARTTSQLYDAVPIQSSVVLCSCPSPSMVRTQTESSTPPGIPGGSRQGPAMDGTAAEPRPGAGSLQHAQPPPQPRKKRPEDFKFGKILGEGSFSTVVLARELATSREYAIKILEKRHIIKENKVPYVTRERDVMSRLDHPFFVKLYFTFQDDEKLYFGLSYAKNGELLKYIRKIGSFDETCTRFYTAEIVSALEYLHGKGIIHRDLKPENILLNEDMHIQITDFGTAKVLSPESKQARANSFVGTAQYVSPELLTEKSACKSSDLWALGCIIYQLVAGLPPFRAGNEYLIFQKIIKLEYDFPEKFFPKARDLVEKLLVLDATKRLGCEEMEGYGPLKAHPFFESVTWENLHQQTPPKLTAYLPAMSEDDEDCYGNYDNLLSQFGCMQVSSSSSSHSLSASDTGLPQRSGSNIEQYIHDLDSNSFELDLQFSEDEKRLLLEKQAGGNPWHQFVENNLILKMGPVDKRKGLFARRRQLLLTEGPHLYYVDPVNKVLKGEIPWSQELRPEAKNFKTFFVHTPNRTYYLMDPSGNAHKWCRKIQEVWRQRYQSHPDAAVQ

[24] = target: PRKCI (Homo sapiens, UniProt P41743)
PRKCI, sequence (P41743 whole entry): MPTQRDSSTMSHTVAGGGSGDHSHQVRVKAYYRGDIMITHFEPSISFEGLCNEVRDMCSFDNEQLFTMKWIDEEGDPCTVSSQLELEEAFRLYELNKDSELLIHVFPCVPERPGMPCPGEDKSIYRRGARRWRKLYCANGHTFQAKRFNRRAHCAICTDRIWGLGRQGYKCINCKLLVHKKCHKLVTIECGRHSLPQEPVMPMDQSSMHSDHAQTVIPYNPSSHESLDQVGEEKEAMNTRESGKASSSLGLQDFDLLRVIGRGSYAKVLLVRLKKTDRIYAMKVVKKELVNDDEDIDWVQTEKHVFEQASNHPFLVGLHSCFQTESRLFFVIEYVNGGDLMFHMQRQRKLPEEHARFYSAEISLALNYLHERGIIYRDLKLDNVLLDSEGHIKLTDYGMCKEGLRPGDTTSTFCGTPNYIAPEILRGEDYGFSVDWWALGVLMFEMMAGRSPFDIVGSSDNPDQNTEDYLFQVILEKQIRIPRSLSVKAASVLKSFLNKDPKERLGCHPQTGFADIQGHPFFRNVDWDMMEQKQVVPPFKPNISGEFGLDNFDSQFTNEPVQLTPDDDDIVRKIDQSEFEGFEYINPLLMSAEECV

[25] = target: PRKG1 (Homo sapiens, UniProt Q13976)
[26] = target: PRKG2 (Homo sapiens, UniProt Q13237)
[27] = target: STK16 (Homo sapiens, UniProt O75716)
STK16, sequence (O75716 whole entry): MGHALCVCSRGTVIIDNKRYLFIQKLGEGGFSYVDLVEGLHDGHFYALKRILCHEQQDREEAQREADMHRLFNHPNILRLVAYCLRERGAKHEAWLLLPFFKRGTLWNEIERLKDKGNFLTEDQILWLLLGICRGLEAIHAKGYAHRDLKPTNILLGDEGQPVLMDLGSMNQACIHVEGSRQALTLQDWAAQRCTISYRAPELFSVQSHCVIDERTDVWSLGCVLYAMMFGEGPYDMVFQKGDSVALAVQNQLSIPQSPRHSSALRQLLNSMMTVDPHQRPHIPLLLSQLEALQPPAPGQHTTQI

[28] = target: TRPM6 (Homo sapiens, UniProt Q9BX84)
TRPM6, sequence (Q9BX84 whole entry): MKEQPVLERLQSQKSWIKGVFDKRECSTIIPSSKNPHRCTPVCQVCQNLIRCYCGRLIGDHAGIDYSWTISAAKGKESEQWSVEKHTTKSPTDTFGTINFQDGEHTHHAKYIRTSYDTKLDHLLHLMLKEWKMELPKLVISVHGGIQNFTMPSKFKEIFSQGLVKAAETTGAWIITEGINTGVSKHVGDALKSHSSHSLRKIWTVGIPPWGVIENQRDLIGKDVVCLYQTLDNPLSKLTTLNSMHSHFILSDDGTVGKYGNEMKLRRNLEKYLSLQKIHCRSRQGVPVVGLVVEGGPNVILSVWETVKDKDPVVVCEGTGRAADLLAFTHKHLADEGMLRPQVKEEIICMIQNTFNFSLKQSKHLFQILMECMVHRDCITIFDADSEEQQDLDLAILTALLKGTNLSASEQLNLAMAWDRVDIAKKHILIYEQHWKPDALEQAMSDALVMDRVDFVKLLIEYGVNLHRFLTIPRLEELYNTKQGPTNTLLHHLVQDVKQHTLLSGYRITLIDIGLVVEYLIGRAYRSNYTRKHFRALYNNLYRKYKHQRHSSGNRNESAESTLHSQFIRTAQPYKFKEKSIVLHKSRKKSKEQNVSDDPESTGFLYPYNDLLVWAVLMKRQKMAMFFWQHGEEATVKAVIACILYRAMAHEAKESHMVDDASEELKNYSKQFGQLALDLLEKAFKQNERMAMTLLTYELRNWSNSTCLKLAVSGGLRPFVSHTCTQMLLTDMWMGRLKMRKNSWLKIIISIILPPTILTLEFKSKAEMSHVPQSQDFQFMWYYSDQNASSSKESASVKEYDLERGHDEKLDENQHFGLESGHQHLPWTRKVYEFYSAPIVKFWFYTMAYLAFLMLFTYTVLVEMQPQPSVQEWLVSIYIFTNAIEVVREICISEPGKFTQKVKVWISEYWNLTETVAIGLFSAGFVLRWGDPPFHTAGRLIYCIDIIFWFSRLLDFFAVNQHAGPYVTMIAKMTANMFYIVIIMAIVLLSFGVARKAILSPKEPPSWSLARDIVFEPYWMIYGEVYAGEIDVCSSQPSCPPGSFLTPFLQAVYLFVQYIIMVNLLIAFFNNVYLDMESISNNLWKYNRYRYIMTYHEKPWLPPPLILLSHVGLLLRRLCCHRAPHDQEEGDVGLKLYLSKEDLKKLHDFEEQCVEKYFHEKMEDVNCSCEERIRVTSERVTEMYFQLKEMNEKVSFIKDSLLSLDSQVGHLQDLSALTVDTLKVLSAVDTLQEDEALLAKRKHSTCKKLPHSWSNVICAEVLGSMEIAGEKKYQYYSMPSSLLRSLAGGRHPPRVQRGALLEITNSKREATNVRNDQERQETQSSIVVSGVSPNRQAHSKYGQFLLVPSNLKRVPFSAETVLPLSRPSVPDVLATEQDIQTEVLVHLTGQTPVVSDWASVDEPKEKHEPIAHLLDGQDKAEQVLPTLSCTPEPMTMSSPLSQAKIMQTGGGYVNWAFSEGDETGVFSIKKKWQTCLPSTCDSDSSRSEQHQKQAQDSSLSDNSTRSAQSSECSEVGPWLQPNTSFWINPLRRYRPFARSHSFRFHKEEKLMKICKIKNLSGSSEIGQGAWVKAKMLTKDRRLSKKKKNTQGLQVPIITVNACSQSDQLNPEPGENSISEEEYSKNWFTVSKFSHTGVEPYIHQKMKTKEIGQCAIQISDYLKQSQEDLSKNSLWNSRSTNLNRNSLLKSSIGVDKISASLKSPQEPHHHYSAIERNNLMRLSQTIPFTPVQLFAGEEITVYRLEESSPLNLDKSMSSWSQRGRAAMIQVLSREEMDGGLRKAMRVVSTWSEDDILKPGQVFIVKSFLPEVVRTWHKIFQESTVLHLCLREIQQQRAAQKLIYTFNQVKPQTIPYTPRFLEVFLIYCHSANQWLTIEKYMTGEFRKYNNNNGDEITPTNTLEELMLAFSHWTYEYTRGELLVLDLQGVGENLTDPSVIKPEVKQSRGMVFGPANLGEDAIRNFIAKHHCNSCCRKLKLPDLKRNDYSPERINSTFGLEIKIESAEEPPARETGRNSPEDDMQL

[29] = target: TYRO3 (Homo sapiens, UniProt Q06418)
[30] = target: p38-alpha (Homo sapiens, UniProt Q16539)
p38-alpha, sequence (Q16539 whole entry): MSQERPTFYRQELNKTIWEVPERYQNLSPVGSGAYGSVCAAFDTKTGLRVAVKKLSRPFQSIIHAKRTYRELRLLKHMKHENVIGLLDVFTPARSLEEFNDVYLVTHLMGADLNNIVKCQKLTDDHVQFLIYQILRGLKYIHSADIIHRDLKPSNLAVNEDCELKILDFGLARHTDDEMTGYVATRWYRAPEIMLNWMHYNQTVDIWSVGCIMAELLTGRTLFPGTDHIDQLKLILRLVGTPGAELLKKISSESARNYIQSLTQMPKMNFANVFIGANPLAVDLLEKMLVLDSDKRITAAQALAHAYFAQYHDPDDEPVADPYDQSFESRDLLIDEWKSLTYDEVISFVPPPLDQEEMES

[31] = target: p38-delta (Homo sapiens, UniProt O15264)

CNc1ncc2cc(-c3ccc(-c4cccc(C)n4)cc3Cl)c(=O)n(C[C@H]3OC[C@H](N)CO3)c2n1 [compound 6, G-5555]
Percent Control [1]: 100%
Percent Control [2]: 87%
Percent Control [3]: 100%
Percent Control [4]: 100%
Percent Control [5]: 100%
Percent Control [6]: 100%
Percent Control [7]: 88%
Percent Control [8]: 100%
Percent Control [9]: 86%
Percent Control [10]: 97%
Percent Control [11]: 80%
Percent Control [12]: 100%
Percent Control [13]: 100%
Percent Control [14]: 100%
Percent Control [15]: 73%
Percent Control [16]: 83%
Percent Control [17]: 91%
Percent Control [18]: 93%
Percent Control [19]: 89%
Percent Control [20]: 73%
Percent Control [21]: 100%
Percent Control [22]: 100%
Percent Control [23]: 99%
Percent Control [24]: 97%
Percent Control [25]: 100%
Percent Control [26]: 86%
Percent Control [27]: 100%
Percent Control [28]: 100%
Percent Control [29]: 96%
Percent Control [30]: 100%
Percent Control [31]: 86%

Source: paper doi:10.1101/2021.04.08.439011v1 (biorxiv, 2021)
